Laboratory results as given in patent publication US11046716B2, “Beta-lactamase inhibitors” (priority 2015, dated 2021).

Columns and labels:
SHV-5 = target: T1, SHV-5 (Klebsiella pneumoniae, UniProt P0A3M1); experiment: β-lactamase enzyme inhibition assay, SHV-5 (cefotaxime substrate); type: biochemical
T1 construct: made in house; host or cells: E. coli BL21(DE3)
Outline: (§1)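 Compounds are mixed with purified, untagged recombinant β-lactamase and held 15 min at 37 °C. Substrate is then added: nitrocefin (100 μM final) for OXA-1, imipenem for KPC-2, cefotaxime for SHV-5. Absorbance is followed immediately, and percent inhibition per concentration gives the IC50.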

KPC-2 = target: T2, KPC-2 (Klebsiella pneumoniae, UniProt Q9F663); experiment: β-lactamase enzyme inhibition assay, KPC-2 (imipenem substrate); type: biochemical; conditions: Class A; imipenem substrate, 300 nm; read-out: KPC-2
T2 construct: made in house; host or cells: E. coli BL21(DE3)
Outline: as §1

VIM-2 = target: T3, VIM-2 (Escherichia coli, UniProt Q5U7L7); experiment: β-lactamase enzyme inhibition assay, VIM-2 (nitrocefin substrate); type: biochemical; conditions: Class B; nitrocefin substrate, 486 nm; read-out: VIM-2
T3 construct: made in house; host or cells: E. coli BL21(DE3)
Outline: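 Metallo-β-lactamase VIM-2 activity was tracked spectrophotometrically at 486 nm with 100 μM nitrocefin over 10 min, following 15 min preincubation with compound at 37 °C; inhibition was calculated per concentration.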

AmpC = target: T4, AmpC (Enterobacter cloacae, UniProt P05364); experiment: β-lactamase enzyme inhibition assay, p99 AmpC (nitrocefin substrate); type: biochemical
T4 construct: made in house; host or cells: E. coli BL21(DE3)
Outline: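 Compounds are mixed with purified, untagged recombinant β-lactamase and held 15 min at 37 °C. Substrate is then added. Absorbance is followed immediately, and percent inhibition per concentration gives the IC50.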

OXA-48 = OXA-48 (UniProt Q6XEC0); experiment: β-lactamase enzyme inhibition assay, Class D oxacillinase; type: biochemical; conditions: read-out: OXA-48
[1] = test system: E. coli expressing the Class A Extended Spectrum Beta-Lactamase (ESBL) CTX-M-15; experiment: Broth microdilution MIC assay with ceftazidime, E. coli CTX-M-15; type: cell-based; conditions: Fixed CAZ (ceftazidime) 4 μg/mL; E. coli ESBL4 CTX-M-15
Outline: (§2)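 In cation-adjusted Mueller Hinton broth, bacteria pre-grown 3-5 hours were exposed to test compound (2-fold, 16–0.125 μg/mL) plus a static 4 μg/ml β-lactam. A panel of control β-lactams was run alongside, and the compound MIC was judged by eye following 16-20 hours at 37° C.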

[2] = test system: E. cloacae expressing the Class C P99; experiment: Broth microdilution MIC assay with ceftazidime, E. cloacae P99; type: cell-based; conditions: Fixed CAZ (ceftazidime) 4 μg/mL; E. cl. 144200 p99 AmpC
Outline: as §2

[3] = test system: K. pneumoniae expressing the Class A carbapenemase KPC-2; experiment: Broth microdilution MIC assay with meropenem, K. pneumoniae KPC-2; type: cell-based; conditions: Fixed Mero (meropenem) 4 μg/mL; K. p. 156319 KPC-3
Outline: as §2

[4] = test system: P. aeruginosa expressing the Class B carbapenemase VIM-2; experiment: Broth microdilution MIC assay with meropenem, P. aeruginosa VIM-2; type: cell-based; conditions: Fixed Mero (meropenem) 4 μg/mL; P. aerug. 2775 VIM-2
Outline: as §2

[5] = test system: K. pneumoniae expressing the class A carbapenemase KPC-2 and the class B carbapenemase VIM-4; experiment: Broth microdilution MIC assay with meropenem, K. pneumoniae KPC-2 and VIM-4; type: cell-based; conditions: Fixed Mero (meropenem) 4 μg/mL; K. p. A-1797 KPC-2 VIM-4
Outline: as §2

[6] = test system: K. pneumoniae producing the Class D carbapenemase OXA-48; experiment: Broth microdilution MIC assay with meropenem, K. pneumoniae OXA-48; type: cell-based; conditions: Fixed Mero (meropenem) 4 μg/mL; K. p. 11978 OXA-48
Outline: as §2

T4 sequence (P05364 21-381): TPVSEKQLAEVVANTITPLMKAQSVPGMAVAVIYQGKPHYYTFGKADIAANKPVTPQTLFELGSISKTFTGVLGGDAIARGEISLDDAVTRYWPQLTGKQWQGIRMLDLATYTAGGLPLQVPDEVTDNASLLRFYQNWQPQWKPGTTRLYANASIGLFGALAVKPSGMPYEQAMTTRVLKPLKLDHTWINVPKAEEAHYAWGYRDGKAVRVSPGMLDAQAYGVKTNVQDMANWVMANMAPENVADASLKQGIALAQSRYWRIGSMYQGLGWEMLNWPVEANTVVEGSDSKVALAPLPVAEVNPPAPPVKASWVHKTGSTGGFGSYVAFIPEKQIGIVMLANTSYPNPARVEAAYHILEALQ
T2 sequence (Q9F663 25-293, looked up): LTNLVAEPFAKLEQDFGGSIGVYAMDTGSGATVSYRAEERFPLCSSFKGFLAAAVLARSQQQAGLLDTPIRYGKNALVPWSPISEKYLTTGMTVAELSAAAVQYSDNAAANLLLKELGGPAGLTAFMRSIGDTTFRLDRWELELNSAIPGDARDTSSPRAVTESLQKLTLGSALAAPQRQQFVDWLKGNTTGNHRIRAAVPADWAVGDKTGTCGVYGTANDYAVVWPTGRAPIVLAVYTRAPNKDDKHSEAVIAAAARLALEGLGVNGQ
T1 sequence (P0A3M1 22-286): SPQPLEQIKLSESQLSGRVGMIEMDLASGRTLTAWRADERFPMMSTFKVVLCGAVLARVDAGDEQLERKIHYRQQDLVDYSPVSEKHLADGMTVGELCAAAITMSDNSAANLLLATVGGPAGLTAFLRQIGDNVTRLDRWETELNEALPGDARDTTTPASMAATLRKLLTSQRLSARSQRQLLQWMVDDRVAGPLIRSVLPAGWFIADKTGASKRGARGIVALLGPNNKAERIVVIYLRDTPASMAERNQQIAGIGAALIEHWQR

With `NCCn1nnc(CC(=O)N[C@H]2Cc3cccc(C(=O)O)c3OB2O)n1` [Example 42, (R)-3-(2-(2-(2-aminoethyl)-2H-tetrazol-5-yl)acetamido)-2-hydroxy-3,4-dihydro-2H-benzo[e][1,2]oxaborinine-8-carboxylic acid] the IC50 (SHV-5) was under 100 nM, the IC50 (KPC-2) was under 100 nM and the IC50 (VIM-2) was under 100 nM. For the same molecule, the IC50 (AmpC) was under 100 nM, the IC50 (OXA-48) was 100 to 1000 nM and the “MIC (μg/mL) of Exemplary Compounds in presence of fixed β-lactams: E. coli ESBL4 CTX-M-15” value (“MIC (μg/mL) … E. coli ESBL4 CTX-M-15” below) [1] was “C (C represents an MIC of <1 μg/mL)”. For the same molecule, the “MIC (μg/mL) of Exemplary Compounds in presence of fixed β-lactams: E. cl. 144200 p99 AmpC” value (“MIC (μg/mL) … E. cl. 144200 p99 AmpC” below) [2] was “C (C represents an MIC of <1 μg/mL)”, the “MIC (μg/mL) of Exemplary Compounds in presence of fixed β-lactams: K. p. 156319 KPC-3” value (“MIC (μg/mL) … K. p. 156319 KPC-3” below) [3] was “C (C represents an MIC of <1 μg/mL)” and the “MIC (μg/mL) of Exemplary Compounds in presence of fixed β-lactams: P. aerug. 2775 VIM-2” value (“MIC (μg/mL) … P. aerug. 2775 VIM-2” below) [4] was “C (C represents an MIC of <1 μg/mL)”. The “MIC (μg/mL) of Exemplary Compounds in presence of fixed β-lactams: K. p. A-1797 KPC-2 VIM-4” value (from here on “MIC (μg/mL) … K. p. A-1797 KPC-2 VIM-4”) [5] was “C (C represents an MIC of <1 μg/mL)” and the “MIC (μg/mL) of Exemplary Compounds in presence of fixed β-lactams: K. p. 11978 OXA-48” value (shortened to “MIC (μg/mL) … K. p. 11978 OXA-48”) [6] was “B (B represents an MIC between 1 and 16 μg/mL inclusive)”.
`O=C(Cn1nnnc1CC(=O)N[C@H]1Cc2cccc(C(=O)O)c2OB1O)N[C@H]1CCNC1` [Example 43, (R)-2-hydroxy-3-(2-(1-(2-oxo-2-(((S)-pyrrolidin-3-yl)amino)ethyl)-1H-tetrazol-5-yl)acetamido)-3,4-dihydro-2H-benzo[e][1,2]oxaborinine-8-carboxylic acid] gave an IC50 (SHV-5) of under 100 nM, an IC50 (KPC-2) of under 100 nM and an IC50 (VIM-2) of under 100 nM. For the same molecule, the IC50 (AmpC) was under 100 nM, the IC50 (OXA-48) was 100 to 1000 nM and the “MIC (μg/mL) … E. coli ESBL4 CTX-M-15” value [1] was “C (C represents an MIC of <1 μg/mL)”. For the same molecule, the “MIC (μg/mL) … E. cl. 144200 p99 AmpC” value [2] was “C (C represents an MIC of <1 μg/mL)”, the “MIC (μg/mL) … K. p. 156319 KPC-3” value [3] was “C (C represents an MIC of <1 μg/mL)” and the “MIC (μg/mL) … P. aerug. 2775 VIM-2” value [4] was “C (C represents an MIC of <1 μg/mL)”. For the same molecule, the “MIC (μg/mL) … K. p. A-1797 KPC-2 VIM-4” value [5] was “B (B represents an MIC between 1 and 16 μg/mL inclusive)” and the “MIC (μg/mL) … K. p. 11978 OXA-48” value [6] was “B (B represents an MIC between 1 and 16 μg/mL inclusive)”.
With `O=C(Cn1nnc(CC(=O)N[C@H]2Cc3cccc(C(=O)O)c3OB2O)n1)N[C@H]1CCNC1` [Example 44] the IC50 (SHV-5) was under 100 nM, the IC50 (KPC-2) was under 100 nM and the IC50 (VIM-2) was under 100 nM. For the same molecule, the IC50 (AmpC) was under 100 nM, the IC50 (OXA-48) was 100 to 1000 nM and the “MIC (μg/mL) … E. coli ESBL4 CTX-M-15” value [1] was “C (C represents an MIC of <1 μg/mL)”. The “MIC (μg/mL) … E. cl. 144200 p99 AmpC” value [2] was “C (C represents an MIC of <1 μg/mL)”, the “MIC (μg/mL) … K. p. 156319 KPC-3” value [3] was “B (B represents an MIC between 1 and 16 μg/mL inclusive)” and the “MIC (μg/mL) … P. aerug. 2775 VIM-2” value [4] was “C (C represents an MIC of <1 μg/mL)”. For the same molecule, the “MIC (μg/mL) … K. p. A-1797 KPC-2 VIM-4” value [5] was “B (B represents an MIC between 1 and 16 μg/mL inclusive)” and the “MIC (μg/mL) … K. p. 11978 OXA-48” value [6] was “B (B represents an MIC between 1 and 16 μg/mL inclusive)”.
Molecule `N=C(N)NCCn1nnnc1CC(=O)N[C@H]1Cc2cccc(C(=O)O)c2OB1O` [Example 47, (R)-3-(2-(1-(2-guanidinoethyl)-1H-tetrazol-5-yl)acetamido)-2-hydroxy-3,4-dihydro-2H-benzo[e][1,2]oxaborinine-8-carboxylic acid] has an IC50 (SHV-5) of under 100 nM, an IC50 (KPC-2) of under 100 nM and an IC50 (VIM-2) of under 100 nM. The IC50 (AmpC) was under 100 nM, the IC50 (OXA-48) was 1000 to 10000 nM and the “MIC (μg/mL) … E. coli ESBL4 CTX-M-15” value [1] was “C (C represents an MIC of <1 μg/mL)”. For the same molecule, the “MIC (μg/mL) … E. cl. 144200 p99 AmpC” value [2] was “C (C represents an MIC of <1 μg/mL)”, the “MIC (μg/mL) … K. p. 156319 KPC-3” value [3] was “C (C represents an MIC of <1 μg/mL)” and the “MIC (μg/mL) … P. aerug. 2775 VIM-2” value [4] was “C (C represents an MIC of <1 μg/mL)”. The “MIC (μg/mL) … K. p. A-1797 KPC-2 VIM-4” value [5] was “B (B represents an MIC between 1 and 16 μg/mL inclusive)” and the “MIC (μg/mL) … K. p. 11978 OXA-48” value [6] was “C (C represents an MIC of <1 μg/mL)”.
